The record followed here is patent US12570666B2, “Furoindazole derivatives” (Bayer Aktiengesellschaft, priority 2019, dated 2026).

T1 sequence (Q9NQS5 whole entry): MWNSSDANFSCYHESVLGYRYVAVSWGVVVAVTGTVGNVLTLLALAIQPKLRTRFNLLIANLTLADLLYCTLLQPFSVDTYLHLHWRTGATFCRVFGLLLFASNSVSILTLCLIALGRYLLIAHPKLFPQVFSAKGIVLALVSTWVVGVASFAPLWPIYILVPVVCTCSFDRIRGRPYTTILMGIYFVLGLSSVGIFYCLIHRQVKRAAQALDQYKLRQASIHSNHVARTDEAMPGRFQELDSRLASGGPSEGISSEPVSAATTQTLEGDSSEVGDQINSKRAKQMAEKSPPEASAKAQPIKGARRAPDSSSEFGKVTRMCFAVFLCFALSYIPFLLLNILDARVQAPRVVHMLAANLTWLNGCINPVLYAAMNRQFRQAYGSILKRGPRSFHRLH

The experiment concerns the target T1, human GPR84 receptor (Homo sapiens, UniProt Q9NQS5).
T1 construct: frozen aliquots prepared by acCELLerate; host or cells: CHO-K1
The experiment is described as follows: cAMP HTRF assay for identification of cellular GPR84 antagonists. Format: cell-based. The settings on record: CHO-K1 cells stably expressing human GPR84; Forskolin + agonist 6-OAU (EC80); average or median values. In a few lines:
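IC50 came from 4-parameter fits over 20 μM–0.07 nM (11 points, duplicate), normalized between DMSO (0%) and agonist-free (100% inhibition) wells. Readout: cAMP-d2/Eu-cryptate HTRF in hGPR84 CHO-K1 cells given forskolin plus agonist, compound preincubated 30 min at room temperature.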
For orientation: TR-FRET usually uses a lanthanide donor and a delayed reading to cut background.
As a reminder, the IC50 is the concentration at which inhibition is half-maximal. `Cc1cccc(Cn2cc3c(n2)-c2c(oc(C(=O)NCCN4CCC4)c2C)CC3)n1` [Example 67, N-[2-(azetidin-1-yl)ethyl]-8-methyl-2-[(6-methylpyridin-2-yl)methyl]-4,5-dihydro-2H-furo[2,3-g]indazole-7-carboxamide]: the IC50 is 1810 nM.

As for `Cc1cccc(Cn2cc3c(n2)-c2c(oc(C(=O)NCc4cc(C5CC5)on4)c2C)CC3)n1` [Example 68, N-[(5-cyclopropyl-1,2-oxazol-3-yl)methyl]-8-methyl-2-[(6-methylpyridin-2-yl)methyl]-4,5-dihydro-2H-furo[2,3-g]indazole-7-carboxamide], the half-maximal inhibitory concentration (IC50) was 170 nM.

For `Cc1cccc(Cn2cc3c(n2)-c2c(oc(C(=O)NCCN4CCCC4)c2C)CC3)n1` [Example 69, 8-methyl-2-[(6-methylpyridin-2-yl)methyl]-N-[2-(pyrrolidin-1-yl)ethyl]-4,5-dihydro-2H-furo[2,3-g]indazole-7-carboxamide], the IC50 worked out at 750 nM.

For `Cc1cccc(Cn2cc3c(n2)-c2c(oc(C(=O)NCc4ccn(C)n4)c2C)CC3)n1` [Example 71, 8-methyl-N-[(1-methyl-1H-pyrazol-3-yl)methyl]-2-[(6-methylpyridin-2-yl)methyl]-4,5-dihydro-2H-furo[2,3-g]indazole-7-carboxamide], the IC50 turned out to be 360 nM.

`Cc1cccc(Cn2cc3c(n2)-c2c(oc(C(=O)NCc4ncco4)c2C)CC3)n1` [Example 72, 8-methyl-2-[(6-methylpyridin-2-yl)methyl]-N-(1,3-oxazol-2-ylmethyl)-4,5-dihydro-2H-furo[2,3-g]indazole-7-carboxamide]: the IC50 was determined as 240 nM.

`Cc1ncccc1Cn1cc2c(n1)-c1c(oc(C(=O)NC[C@@H]3CCCO3)c1C)CC2` [Example 73, 8-methyl-2-[(2-methylpyridin-3-yl)methyl]-N-[(2S)-tetrahydrofuran-2-ylmethyl]-4,5-dihydro-2H-furo[2,3-g]indazole-7-carboxamide]: the IC50 turned out to be 140 nM.

Consider `Cc1ncccc1Cn1cc2c(n1)-c1c(oc(C(=O)NC[C@@H]3COCCO3)c1C)CC2` [Example 74, N-[(2R)-1,4-dioxan-2-ylmethyl]-8-methyl-2-[(2-methylpyridin-3-yl)methyl]-4,5-dihydro-2H-furo[2,3-g]indazole-7-carboxamide], for which the IC50 amounted to 160 nM.

As to `Cc1ccc(Cn2cc3c(n2)-c2c(oc(C(=O)NC[C@@H]4CCCO4)c2C)CC3)cn1` [Example 75, 8-methyl-2-[(6-methylpyridin-3-yl)methyl]-N-[(2S)-tetrahydrofuran-2-ylmethyl]-4,5-dihydro-2H-furo[2,3-g]indazole-7-carboxamide], the IC50 amounted to 60 nM.

Take `Cc1ccc(Cn2cc3c(n2)-c2c(oc(C(=O)NC[C@@H]4COCCO4)c2C)CC3)cn1` [Example 76, N-[(2R)-1,4-dioxan-2-ylmethyl]-8-methyl-2-[(6-methylpyridin-3-yl)methyl]-4,5-dihydro-2H-furo[2,3-g]indazole-7-carboxamide]: the IC50 was determined as 65 nM.

For the compound `Cc1ccc(Cn2cc3c(n2)-c2c(oc(C(=O)NC[C@@H]4CCCO4)c2C)CC3)c(C)n1` [Example 77, 2-[(2,6-dimethylpyridin-3-yl)methyl]-8-methyl-N-[(2S)-tetrahydrofuran-2-ylmethyl]-4,5-dihydro-2H-furo[2,3-g]indazole-7-carboxamide], the IC50 was 170 nM.

In the case of `Cc1ccc(Cn2cc3c(n2)-c2c(oc(C(=O)NC[C@@H]4COCCO4)c2C)CC3)c(C)n1` [Example 78, 2-[(2,6-dimethylpyridin-3-yl)methyl]-N-[(2R)-1,4-dioxan-2-ylmethyl]-8-methyl-4,5-dihydro-2H-furo[2,3-g]indazole-7-carboxamide], the half-inhibitory concentration (IC50) turned out to be 190 nM.

`Cc1cc(Cn2cc3c(n2)-c2c(oc(C(=O)NC[C@@H]4CCCO4)c2C)CC3)ccn1` [Example 79, 8-methyl-2-[(2-methylpyridin-4-yl)methyl]-N-[(2S)-tetrahydrofuran-2-ylmethyl]-4,5-dihydro-2H-furo[2,3-g]indazole-7-carboxamide]: the IC50 came out at 58 nM.

In the case of `Cc1cc(Cn2cc3c(n2)-c2c(oc(C(=O)NC[C@@H]4COCCO4)c2C)CC3)ccn1` [Example 80, N-[(2R)-1,4-dioxan-2ylmethyl]-8-methyl-2-[(2-methylpyridin-4-yl)methyl]-4,5-dihydro-2H-furo[2,3-g]indazole-7-carboxamide], the IC50 came to 57 nM.

On to `Cc1cc(Cn2cc3c(n2)-c2c(oc(C(=O)NC[C@@H]4CCCO4)c2C)CC3)cc(C)n1` [Example 81, 2-[(2,6-dimethylpyridin-4-yl)methyl]-8-methyl-N-[(2S)-tetrahydrofuran-2-ylmethyl]-4,5-dihydro-2H-furo[2,3-g]indazole-7-carboxamide], for which the IC50 stood at 380 nM.

Consider `Cc1cc(Cn2cc3c(n2)-c2c(oc(C(=O)NC[C@@H]4COCCO4)c2C)CC3)cc(C)n1` [Example 82, 2-[(2,6-dimethylpyridin-4-yl)methyl]-N-[(2R)-1,4-dioxan-2-ylmethyl]-8-methyl-4,5-dihydro-2H-furo[2,3-g]indazole-7-carboxamide], for which the IC50 is 440 nM.

Consider `Cc1c(C(=O)NC[C@@H]2CCCO2)oc2c1-c1nn(Cc3ncccn3)cc1CC2` [Example 83, 8-methyl-2-(pyrimidin-2-ylmethyl)-N-[(2S)-tetrahydrofuran-2-ylmethyl]-4,5-dihydro-2H-furo[2,3-g]indazole-7-carboxamide], for which the half-inhibitory concentration (IC50) was 180 nM.

On to `Cc1c(C(=O)NC[C@@H]2COCCO2)oc2c1-c1nn(Cc3ncccn3)cc1CC2` [Example 84, N-[(2R)-1,4-dioxan-2-ylmethyl]-8-methyl-2-(pyrimidin-2-ylmethyl)-4,5-dihydro-2H-furo[2,3-g]indazole-7-carboxamide], for which the IC50 came out at 180 nM.

Regarding `Cc1c(C(=O)NC[C@@H]2CCCO2)oc2c1-c1nn(Cc3cncnc3)cc1CC2` [Example 85, 8-methyl-2-(pyrimidin-5-ylmethyl)-N-[(2S)-tetrahydrofuran-2-ylmethyl]-4,5-dihydro-2H-furo[2,3-g]indazole-7-carboxamide], the IC50 turned out to be 260 nM.

As for `Cc1c(C(=O)NC[C@@H]2COCCO2)oc2c1-c1nn(Cc3cncnc3)cc1CC2` [Example 86, N-[(2R)-1,4-dioxan-2-ylmethyl]-8-methyl-2-(pyrimidin-5-ylmethyl)-4,5-dihydro-2H-furo[2,3-g]indazole-7-carboxamide], the IC50 came to 180 nM.

In the case of `Cc1c(C(=O)NC[C@@H]2CCCO2)oc2c1-c1nn(C[C@@H]3COCCO3)cc1CC2` [Example 87, 2-[(2R)-1,4-dioxan-2-ylmethyl]-8-methyl-N-[(2S)-tetrahydrofuran-2-ylmethyl]-4,5-dihydro-2H-furo[2,3-g]indazole-7-carboxamide], the half-maximal inhibitory concentration (IC50) turned out to be 200 nM.

As to `Cc1c(C(=O)NC[C@@H]2COCCO2)oc2c1-c1nn(C[C@@H]3COCCO3)cc1CC2` [Example 88, N,2-bis[(2R)-1,4-dioxan-2-ylmethyl]-8-methyl-4,5-dihydro-2H-furo[2,3-g]indazole-7-carboxamide], the IC50 was 110 nM.

With `Cc1c(C(=O)NC[C@@H]2CCCO2)oc2c1-c1nn(C[C@H]3COCCO3)cc1CC2` [Example 89, 2-[(2S)-1,4-dioxan-2-ylmethyl]-8-methyl-N-[(2S)-tetrahydrofuran-2-ylmethyl]-4,5-dihydro-2H-furo[2,3-g]indazole-7-carboxamide], the IC50 is 40 nM.

Take `Cc1c(C(=O)NC[C@@H]2COCCO2)oc2c1-c1nn(C[C@H]3COCCO3)cc1CC2` [Example 90, N-[(2R)-1,4-dioxan-2-ylmethyl]-2-[(2S)-1,4-dioxan-2-ylmethyl]-8-methyl-4,5-dihydro-2H-furo[2,3-g]indazole-7-carboxamide]: the IC50 was determined as 47 nM.

Take `Cc1c(C(=O)NC[C@@H]2CCCO2)oc2c1-c1nn(CC3COC3)cc1CC2` [Example 91, 8-methyl-2-(oxetan-3-ylmethyl)-N-[(2S)-tetrahydrofuran-2-ylmethyl]-4,5-dihydro-2H-furo[2,3-g]indazole-7-carboxamide]: the 50% inhibitory concentration (IC50) amounted to 64 nM.

As to `Cc1c(C(=O)NC[C@@H]2COCCO2)oc2c1-c1nn(CC3COC3)cc1CC2` [Example 92, N-[(2R)-1,4-dioxan-2-ylmethyl]-8-methyl-2-(oxetan-3-ylmethyl)-4,5-dihydro-2H-furo[2,3-g]indazole-7-carboxamide], the IC50 was 130 nM.

Turning to `Cc1c(C(=O)NC[C@@H]2CCCO2)oc2c1-c1nn(CC3(C)COC3)cc1CC2` [Example 93, 8-methyl-2-[(3-methyloxetan-3-yl)methyl]-N-[(2S)-tetrahydrofuran-2-ylmethyl]-4,5-dihydro-2H-furo[2,3-g]indazole-7-carboxamide], the IC50 is 17 nM.

As for `Cc1c(C(=O)NC[C@@H]2COCCO2)oc2c1-c1nn(CC3(C)COC3)cc1CC2` [Example 94, N-[(2R)-1,4-dioxan-2-ylmethyl]-8-methyl-2-[(3-methyloxetan-3-yl)methyl]-4,5-dihydro-2H-furo[2,3-g]indazole-7-carboxamide], the concentration for half-maximal inhibition (IC50) is 21 nM.

Regarding `Cc1c(C(=O)NC[C@@H]2CCCO2)oc2c1-c1nn(CC3(F)COC3)cc1CC2` [Example 95, 2-[(3-fluorooxetan-3-yl)methyl]-8-methyl-N-[(2S)-tetrahydrofuran-2-ylmethyl]-4,5-dihydro-2H-furo[2,3-g]indazole-7-carboxamide], the IC50 is 31 nM.

Consider `Cc1c(C(=O)NC[C@@H]2COCCO2)oc2c1-c1nn(CC3(F)COC3)cc1CC2` [Example 96, N-[(2R)-1,4-dioxan-2-ylmethyl]-2-[(3-fluorooxetan-3-yl)methyl]-8-methyl-4,5-dihydro-2H-furo[2,3-g]indazole-7-carboxamide], for which the IC50 came out at 47 nM.

As to `Cc1c(C(=O)NC[C@@H]2CCCO2)oc2c1-c1nn(C[C@H]3CCO3)cc1CC2` [Example 97, 8-methyl-2-[(2R)-oxetan-2-ylmethyl]-N-[(2S)-tetrahydrofuran-2-ylmethyl]-4,5-dihydro-2H-furo[2,3-g]indazole-7-carboxamide], the IC50 came out at 620 nM.
